# Measurements: patent EP0542497A1, “Heterocyclic compounds” (THE WELLCOME FOUNDATION LIMITED, priority 1991, dated 1993)
# Tested on: Mycobacterium tuberculosis
# Test: In vitro activity vs Mycobacterium tuberculosis, proportion method
# Type: cell-based
# Details: ten(10) clinical isolates of Myco. tuberculosis (including several multiply-resistant strains), read-out: average MIC
compound,measurement,value
"CCC(CC)n1c(C)cc2c3c(N)nc(N)nc3ccc21 [Compound 2, 1,3-Diamino-7-(1-ethylpropyl)-8-methyl-7H-pyrrolo(3,2-f)quinazoline]",M I C,3.2 µg/mL
